Test results as given in patent US20250099517A1, “Use of Lactobacillus reuteri Y7 strain for prevention or treatment of ocular diseases” (Taipei Medical University, priority 2023, published 2025).

What was measured:
[1] = food intakes of mice during the experiment; assay type: in vivo, C57BL/6 mice; conditions: for food intakes of mice: LU, lutein 6.15 mg/kg bw oral daily, blue light, Mean±S.E.M., n=6
Protocol: In the present invention, six-week-old male C57BL/6 mice were placed in a breeding cage in which the following feeding conditions were kept: temperature, 22±2° C., humidity, 55±5%, and the light-dark cycle of 12-hour light and 12-hour dark. The mice were fed with fodders at the adaptive phase for one week; general solid fodders for test animals were administered to mice of the control group and mice during the adaptive phase. The initial day was defined as Day 0 when the adaptive phase for the mice was over. From the next week, the mice were interfered with samples under test and exposed to blue light. During the experiments, the mice were monitored for weights as well as water intakes and checked for any physiological change. The data for experiments through electroretinography (ERG), fndus photography (FP), fundus fluorescein angiograph (FFA), spectral-domain optical coherence tomography (SD-OCT) and intraocular pressure (IOP) were collected at Day 0, Day 21 and Day 35, as shown in FIG. 1 for the experimental process. The C57BL/6 mice, which weighed between 23 and 25 g, were divided into seven groups randomly. In each group, the six mice induced by blue light successfully were incorporated in experiments. The samples dissolved in deuterium-depleted water (DDW) were fed to mice through oral tubes once a day. The groups were named and introduced as follows: • (1) Solvent not classified group (NC): The mice were fed with 0.2 ml deuterium-depleted water (DDW) through tubes; • (2) Negative control group (Blue light (BL)): The mice were fed with 0.2 ml deuterium-depleted water (DDW) through tubes and exposed to blue light; • (3) Low-dosage Y7 probiotics group […]): The mice were fed with low-dosage Y7 probiotics (probiotic counts of 1.0×10^8 CFU/ml dissolved in 0.2 ml DDW per day) and exposed to blue light; • (4) High-dosage Y7 probiotics group […]): The mice were fed with high-dosage Y7 probiotics (probiotic counts of 1.0×10^9 CFU/ml dissolved in 0.2 ml DDW per day) and exposed to blue light; • (5) Positive control group (lutein (LU)): The mice were fed with lutein and exposed to blue light. The recommended human dosage of lutein is 30 mg. The mouse cage (48×25×20 cm) placed inside a stainless ventilated box was equipped with blue light boards as blue light sources around and above. In the experiment of animals exposed to blue light, six-week-old mice staying in the mouse cage were fed with drinking water as well as fodders and exposed to 400 Lux blue light illumination under the light-dark cycle of 12-hour light and 12-hour dark. The experiment was aimed at causing mice' late dry macular disease induced by chronic light injuries for simulating a human being's macular disease after long-term exposure to short-wavelength blue light from 3C products in daily life. All data written as the form of mean±standard error of the mean (S.E.M.) were used in the statistical analysis through the one-way ANOVA and the Newman-Keuls test; p<0.05 denoted statistical difference. In the experiment, the software for the statistical analysis was Graph pad Prism (v9.2.0). The data such as food intake, water intake, body weight, organ weight and other clinical examination data were analyzed with the one-way ANOVA.

[2] = test system: blue light-induced retinal atrophy; assay: SD-OCT quantitative analysis of retina layers, blue light-induced macular disease model; assay type: in vivo, C57BL/6 mice; conditions: for RPE layer thickness compared with the BL group / ONL (outer nuclear layer) thickness compared with the BL group: Day 35, p<0.05
Protocol: The C57BL/6 mice, which weighed between 23 and 25 g, were divided into seven groups randomly. In each group, the six mice induced by blue light successfully were incorporated in experiments. The samples dissolved in deuterium-depleted water (DDW) were fed to mice through oral tubes once a day. The groups were named and introduced as follows: • (1) Solvent not classified group (NC): The mice were fed with 0.2 ml deuterium-depleted water (DDW) through tubes; • (2) Negative control group (Blue light (BL)): The mice were fed with 0.2 ml deuterium-depleted water (DDW) through tubes and exposed to blue light; • (3) Low-dosage Y7 probiotics group […]): The mice were fed with low-dosage Y7 probiotics (probiotic counts of 1.0×10^8 CFU/ml dissolved in 0.2 ml DDW per day) and exposed to blue light; • (4) High-dosage Y7 probiotics group […]): The mice were fed with high-dosage Y7 probiotics (probiotic counts of 1.0×10^9 CFU/ml dissolved in 0.2 ml DDW per day) and exposed to blue light; • (5) Positive control group (lutein (LU)): The mice were fed with lutein and exposed to blue light. The recommended human dosage of lutein is 30 mg. The mouse cage (48×25×20 cm) placed inside a stainless ventilated box was equipped with blue light boards as blue light sources around and above. In the experiment of animals exposed to blue light, six-week-old mice staying in the mouse cage were fed with drinking water as well as fodders and exposed to 400 Lux blue light illumination under the light-dark cycle of 12-hour light and 12-hour dark. The experiment was aimed at causing mice' late dry macular disease induced by chronic light injuries for simulating a human being's macular disease after long-term exposure to short-wavelength blue light from 3C products in daily life. The OCT image system (Phoenix Research Laboratories, San Ramon, CA) used in the experiment is constructed based on the principle of spectral-domain optical coherence tomography. In the system, the computed tomography is divided into five layers, that is, Layer 1: the distance from the Ganglion cell layer (GY7L) to the outer plexiform layer (OPL); Layer 2: outer nuclear layer (ONL); Layer 3: the distance between the inner segment (IS) and the outer segment (OS); Layer 4: the distance from IS/OS to RPE; Layer 5: the total retinal thickness from the nerve fiber layer (NFL) to the lower edge of the RPE layer. The five layers were taken for the quantitative analysis by InSight XL (Phoenix Research Laboratories, San Ramon, CA). SD-OCT was used in checking lesions after exposure to blue light such as retinal atrophy and edema on a retina structure. According to the quantitative SD-OCT analysis, changes in all layers of a retina during the experiment were clearly inspected and no lesion like atrophy and edema was detected in any group before the experiment, as show in FIG. 5. Atrophy at the outer nuclear layer (ONL) of mice in the BL group was observed on Day 35, as shown by the arrow in FIG. 3a.

Compound | food intakes of mice ([1]; Day7) | food intakes of mice ([1]; Day14) | food intakes of mice ([1]; Day21) | food intakes of mice ([1]; Day28) | food intakes of mice ([1]; Day35) | RPE layer thickness compared with the BL group ([2]; LU lutein group) | thickness of a retina after long-term exposure to blue light ([2]; lutein) | food intakes compared with the BL group ([1]; mouse, in vivo) | ONL (outer nuclear layer) thickness compared with the BL group ([2]; Y7H high-dosage group) | RPE layer thickness compared with the BL group ([2]; Y7H high-dosage group) | ONL (outer nuclear layer) thickness compared with the BL group ([2]; Y7L low-dosage group) | RPE layer thickness compared with the BL group ([2]; Y7L low-dosage group) | thickness of a retina after long-term exposure to blue light ([2]; high-dosage Y7 probiotics) | thickness of a retina after long-term exposure to blue light ([2]; low-dosage Y7 probiotics)
CC1=C[C@H](O)CC(C)(C)[C@H]1/C=C/C(C)=C/C=C/C(C)=C/C=C/C=C(C)/C=C/C=C(C)/C=C/C1=C(C)C[C@@H](O)CC1(C)C [lutein, reference compound] | 5.71 ± 1.17 | 4.17 ± 1.15 | 5.04 ± 1.82 | 5.33 ± 2.17 | 4.43 ± 2.12 | significantly thicker | effectively maintained | – | – | – | – | – | – | –
Lactobacillus reuteri Y7 [Y7 probiotics] | – | – | – | – | – | – | – | significantly higher | significant difference | significantly thicker | significant difference | significantly thicker | effectively maintained | effectively maintained
